From ChEMBL document CHEMBL1145828, “Development of natural product-derived receptor tyrosine kinase inhibitors based on conservation of protein domain fold” (J Med Chem, 2003)
The source made the active and inactive calls. The rule behind the calls is not given here.

Tests used:
[1] = target: T1, Receptor tyrosine-protein kinase erbB-2 (Homo sapiens, UniProt P04626); test: Inhibition of ERBB2 receptor kinase
[2] = target: T2, Epidermal growth factor receptor (Homo sapiens, UniProt P00533); test: Inhibition of Epidermal growth factor receptor (No effect)
[3] = target: T3, Insulin-like growth factor 1 receptor (Homo sapiens, UniProt P08069); test: Inhibition of Insulin-like growth factor I receptor (No effect)
Angiopoietin-1 receptor [4] = target: T4, Angiopoietin-1 receptor (Homo sapiens, UniProt Q02763); test: Inhibition of Tyrosine protein kinase receptor TIE-2 (No effect)
[5] = target: T5, Vascular endothelial growth factor receptor 2 (Homo sapiens, UniProt P35968); test: Inhibition of Vascular endothelial growth factor receptor 2 (No effect)
[6] = target: T6, Vascular endothelial growth factor receptor 3 (Homo sapiens, UniProt P35916); test: Inhibition of Vascular endothelial growth factor receptor 3 (No effect)
[7] = target: T1, Receptor tyrosine-protein kinase erbB-2; test: Inhibition of ERBB2 receptor kinase (No effect)
[8] = target: T2, Epidermal growth factor receptor; test: Inhibition of Epidermal growth factor receptor
[9] = target: T3, Insulin-like growth factor 1 receptor; test: Inhibition of Insulin-like growth factor I receptor
Angiopoietin-1 receptor [10] = target: T4, Angiopoietin-1 receptor; test: Inhibition of Tyrosine protein kinase receptor TIE-2
[11] = target: T6, Vascular endothelial growth factor receptor 3; test: Inhibition of Vascular endothelial growth factor receptor 3
[12] = target: T5, Vascular endothelial growth factor receptor 2; test: Inhibition of Vascular endothelial growth factor receptor 2

T6 sequence (P35916 whole entry): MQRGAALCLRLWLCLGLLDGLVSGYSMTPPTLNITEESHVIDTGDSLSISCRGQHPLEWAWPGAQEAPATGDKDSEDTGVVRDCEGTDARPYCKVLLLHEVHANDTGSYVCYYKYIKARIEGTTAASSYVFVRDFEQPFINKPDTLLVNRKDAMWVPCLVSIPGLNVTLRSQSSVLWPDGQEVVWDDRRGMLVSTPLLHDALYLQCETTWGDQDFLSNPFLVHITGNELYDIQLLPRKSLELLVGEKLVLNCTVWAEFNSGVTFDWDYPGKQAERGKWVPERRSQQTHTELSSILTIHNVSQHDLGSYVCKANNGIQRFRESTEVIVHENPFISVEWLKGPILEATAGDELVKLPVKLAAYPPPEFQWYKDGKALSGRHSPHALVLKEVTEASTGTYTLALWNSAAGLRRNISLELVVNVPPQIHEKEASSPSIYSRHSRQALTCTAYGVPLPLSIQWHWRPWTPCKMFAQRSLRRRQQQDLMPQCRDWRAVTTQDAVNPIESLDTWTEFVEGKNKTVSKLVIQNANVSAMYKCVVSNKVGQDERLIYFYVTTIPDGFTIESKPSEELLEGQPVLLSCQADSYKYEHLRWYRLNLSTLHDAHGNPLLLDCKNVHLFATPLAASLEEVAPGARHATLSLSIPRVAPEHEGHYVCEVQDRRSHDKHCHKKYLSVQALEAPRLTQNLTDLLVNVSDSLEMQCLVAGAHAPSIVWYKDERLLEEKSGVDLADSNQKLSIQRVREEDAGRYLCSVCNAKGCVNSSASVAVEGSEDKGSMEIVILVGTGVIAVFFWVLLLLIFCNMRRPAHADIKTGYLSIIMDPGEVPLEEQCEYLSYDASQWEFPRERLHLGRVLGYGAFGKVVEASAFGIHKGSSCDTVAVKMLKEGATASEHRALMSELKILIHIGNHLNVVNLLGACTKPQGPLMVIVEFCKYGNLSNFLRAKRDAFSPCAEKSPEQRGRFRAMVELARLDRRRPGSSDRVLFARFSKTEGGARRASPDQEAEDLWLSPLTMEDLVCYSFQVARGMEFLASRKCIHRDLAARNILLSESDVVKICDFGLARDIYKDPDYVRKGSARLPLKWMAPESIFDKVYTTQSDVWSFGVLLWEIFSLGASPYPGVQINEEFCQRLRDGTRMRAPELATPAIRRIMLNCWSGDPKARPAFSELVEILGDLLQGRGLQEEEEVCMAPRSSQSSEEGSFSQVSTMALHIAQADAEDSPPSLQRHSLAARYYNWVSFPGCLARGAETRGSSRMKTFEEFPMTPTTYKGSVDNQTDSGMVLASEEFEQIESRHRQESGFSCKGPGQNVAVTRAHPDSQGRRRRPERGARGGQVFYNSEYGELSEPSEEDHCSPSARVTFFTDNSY
T4 sequence (Q02763 whole entry): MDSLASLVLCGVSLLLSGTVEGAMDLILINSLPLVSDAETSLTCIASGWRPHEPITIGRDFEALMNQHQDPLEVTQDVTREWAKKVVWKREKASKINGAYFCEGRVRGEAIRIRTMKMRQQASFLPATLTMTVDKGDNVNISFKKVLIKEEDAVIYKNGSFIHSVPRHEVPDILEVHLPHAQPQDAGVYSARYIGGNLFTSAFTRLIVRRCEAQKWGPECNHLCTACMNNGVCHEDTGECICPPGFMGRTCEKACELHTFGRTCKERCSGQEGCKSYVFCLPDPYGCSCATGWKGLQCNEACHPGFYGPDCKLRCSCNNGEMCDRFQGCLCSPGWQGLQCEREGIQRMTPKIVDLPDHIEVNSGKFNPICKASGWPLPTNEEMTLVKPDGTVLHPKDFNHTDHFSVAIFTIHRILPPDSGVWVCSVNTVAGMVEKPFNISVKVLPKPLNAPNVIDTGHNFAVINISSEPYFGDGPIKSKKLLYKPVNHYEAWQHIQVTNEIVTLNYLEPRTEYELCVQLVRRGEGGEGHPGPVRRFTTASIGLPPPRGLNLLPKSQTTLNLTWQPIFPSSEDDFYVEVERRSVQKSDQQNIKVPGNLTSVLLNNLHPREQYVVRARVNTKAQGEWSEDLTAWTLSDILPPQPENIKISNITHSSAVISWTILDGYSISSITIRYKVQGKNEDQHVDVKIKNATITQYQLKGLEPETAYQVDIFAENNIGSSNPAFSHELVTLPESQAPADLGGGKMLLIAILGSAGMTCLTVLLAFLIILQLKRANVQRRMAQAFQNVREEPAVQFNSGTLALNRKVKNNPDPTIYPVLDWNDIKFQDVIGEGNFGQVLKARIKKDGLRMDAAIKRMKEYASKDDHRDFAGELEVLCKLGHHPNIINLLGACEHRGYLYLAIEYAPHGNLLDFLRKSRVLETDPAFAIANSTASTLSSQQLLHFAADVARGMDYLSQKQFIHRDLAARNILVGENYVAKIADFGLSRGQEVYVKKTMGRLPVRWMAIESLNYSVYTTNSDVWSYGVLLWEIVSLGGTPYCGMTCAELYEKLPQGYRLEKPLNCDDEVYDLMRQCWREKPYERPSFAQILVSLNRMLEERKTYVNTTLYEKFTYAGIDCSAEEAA
T5 sequence (P35968 whole entry): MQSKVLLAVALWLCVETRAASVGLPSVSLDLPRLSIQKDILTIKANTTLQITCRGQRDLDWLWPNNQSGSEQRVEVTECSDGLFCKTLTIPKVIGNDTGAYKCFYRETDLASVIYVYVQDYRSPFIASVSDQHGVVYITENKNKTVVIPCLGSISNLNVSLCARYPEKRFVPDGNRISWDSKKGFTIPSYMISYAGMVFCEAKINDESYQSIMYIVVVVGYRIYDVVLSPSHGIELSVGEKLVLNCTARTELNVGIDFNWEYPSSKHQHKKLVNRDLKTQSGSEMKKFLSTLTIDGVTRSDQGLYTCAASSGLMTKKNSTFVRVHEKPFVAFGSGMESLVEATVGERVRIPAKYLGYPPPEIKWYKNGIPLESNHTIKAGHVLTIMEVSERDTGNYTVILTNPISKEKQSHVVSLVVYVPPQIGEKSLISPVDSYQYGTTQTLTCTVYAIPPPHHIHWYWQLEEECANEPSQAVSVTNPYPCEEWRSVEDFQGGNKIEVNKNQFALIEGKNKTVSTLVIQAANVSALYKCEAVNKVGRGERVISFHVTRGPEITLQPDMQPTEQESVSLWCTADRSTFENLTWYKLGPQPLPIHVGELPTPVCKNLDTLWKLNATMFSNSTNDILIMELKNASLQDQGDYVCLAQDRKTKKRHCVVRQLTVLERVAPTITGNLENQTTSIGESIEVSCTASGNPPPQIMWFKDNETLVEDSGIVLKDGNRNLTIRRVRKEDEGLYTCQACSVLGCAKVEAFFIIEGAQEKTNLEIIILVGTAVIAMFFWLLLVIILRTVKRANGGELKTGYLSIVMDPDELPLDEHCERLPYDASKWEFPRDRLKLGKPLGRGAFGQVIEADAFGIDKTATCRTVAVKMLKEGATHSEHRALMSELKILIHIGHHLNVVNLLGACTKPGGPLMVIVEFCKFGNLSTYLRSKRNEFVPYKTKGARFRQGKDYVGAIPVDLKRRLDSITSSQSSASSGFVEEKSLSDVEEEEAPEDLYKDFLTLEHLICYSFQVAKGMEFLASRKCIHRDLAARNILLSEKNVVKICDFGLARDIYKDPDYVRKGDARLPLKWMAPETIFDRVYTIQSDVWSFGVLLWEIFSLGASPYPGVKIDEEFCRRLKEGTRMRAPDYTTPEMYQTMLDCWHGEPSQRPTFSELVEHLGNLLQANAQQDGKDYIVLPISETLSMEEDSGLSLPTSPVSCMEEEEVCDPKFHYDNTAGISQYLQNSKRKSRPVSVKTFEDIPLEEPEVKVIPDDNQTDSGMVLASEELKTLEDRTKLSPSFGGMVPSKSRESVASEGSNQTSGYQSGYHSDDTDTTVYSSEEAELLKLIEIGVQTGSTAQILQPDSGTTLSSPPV
T2 sequence (P00533 whole entry): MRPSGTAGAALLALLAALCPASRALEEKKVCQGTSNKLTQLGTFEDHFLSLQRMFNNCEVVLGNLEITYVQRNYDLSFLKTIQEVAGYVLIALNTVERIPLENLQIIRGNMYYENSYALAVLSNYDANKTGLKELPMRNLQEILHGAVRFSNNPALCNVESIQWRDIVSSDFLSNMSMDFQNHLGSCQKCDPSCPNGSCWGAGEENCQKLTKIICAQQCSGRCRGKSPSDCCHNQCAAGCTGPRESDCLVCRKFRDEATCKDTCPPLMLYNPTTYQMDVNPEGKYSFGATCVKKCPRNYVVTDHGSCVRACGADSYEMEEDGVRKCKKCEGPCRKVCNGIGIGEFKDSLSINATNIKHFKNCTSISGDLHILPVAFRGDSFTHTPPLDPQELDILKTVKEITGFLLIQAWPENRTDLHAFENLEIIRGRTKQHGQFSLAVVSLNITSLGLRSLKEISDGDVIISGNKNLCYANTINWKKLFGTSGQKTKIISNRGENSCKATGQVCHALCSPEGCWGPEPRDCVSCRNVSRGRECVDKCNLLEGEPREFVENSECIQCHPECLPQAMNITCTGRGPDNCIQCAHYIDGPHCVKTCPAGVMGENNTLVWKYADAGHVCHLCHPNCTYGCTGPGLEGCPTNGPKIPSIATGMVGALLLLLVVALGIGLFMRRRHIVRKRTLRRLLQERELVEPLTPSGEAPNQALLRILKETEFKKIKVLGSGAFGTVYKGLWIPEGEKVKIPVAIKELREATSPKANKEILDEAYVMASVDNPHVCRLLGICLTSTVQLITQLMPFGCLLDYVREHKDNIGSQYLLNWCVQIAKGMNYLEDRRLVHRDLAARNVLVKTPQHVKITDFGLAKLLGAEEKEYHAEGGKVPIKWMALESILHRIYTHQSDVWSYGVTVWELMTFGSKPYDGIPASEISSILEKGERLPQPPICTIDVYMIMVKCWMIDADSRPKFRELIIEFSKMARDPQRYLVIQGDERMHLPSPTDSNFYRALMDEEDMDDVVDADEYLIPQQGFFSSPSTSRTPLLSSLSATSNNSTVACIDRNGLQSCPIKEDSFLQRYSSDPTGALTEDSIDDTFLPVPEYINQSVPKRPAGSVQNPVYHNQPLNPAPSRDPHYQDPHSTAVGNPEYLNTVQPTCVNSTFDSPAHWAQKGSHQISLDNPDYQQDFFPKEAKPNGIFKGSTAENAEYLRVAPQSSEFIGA

SMILES | IC50 [1] | NI [2] | NI [3] | NI (Angiopoietin-1 receptor [4]) | NI [5] | NI [6] | NI [7] | IC50 [8] | IC50 [9] | IC50 (Angiopoietin-1 receptor [10]) | IC50 [11] | IC50 [12]
COC1=CC(=O)C=CC1=O | 29 µM | inactive | inactive | inactive | inactive | inactive | – | – | – | – | – | –
COC1=CC(=O)C=C(Cc2ccccc2)C1=O | – | inactive | inactive | – | inactive | inactive | inactive | – | – | 18 µM | – | –
COC1=CC(=O)C(N[C@@H](CO)C(=O)O)=CC1=O | > 100 µM | inactive | – | inactive | – | inactive | – | – | > 50 µM | – | – | 8 µM

The remaining lines, values ahead:

IC50 [1] | NI [2] | NI [3] | NI (Angiopoietin-1 receptor [4]) | NI [5] | NI [6] | NI [7] | IC50 [8] | IC50 [9] | IC50 (Angiopoietin-1 receptor [10]) | IC50 [11] | IC50 [12] | SMILES
– | – | – | – | inactive | – | inactive | 44 µM | 6 µM | 5 µM | 3 µM | – | CC(O)C(/N=C1C=C(O)/C(=N\C(C(=O)O)C(C)O)C=C/1O)C(=O)O (configuration not stated)
> 100 µM | – | inactive | – | inactive | inactive | – | > 100 µM | – | 14 µM | – | – | COC1=CC(=O)C=C(/C=C2\CCCC3CCCCC23)C1=O (configuration not stated)
– | – | – | – | – | inactive | inactive | > 100 µM | 0.5 µM | 9 µM | – | > 50 µM | CC(O)C(/N=C1\C(O)=CC(=O)C(O)=C1CC1CCCC2CCCCC21)C(=O)O (configuration not stated)
– | inactive | inactive | inactive | – | inactive | inactive | – | – | – | – | 20 µM | CC1=CCC[C@H]2[C@](C)(CC3=C(O)C(O)=C/C(=N\[C@@H](CO)C(=O)O)C3=O)[C@H](C)CC[C@]12C
